# Values joined by “and” are separate entries in the source; they are usually repeats but may differ in a detail not shown here. Equal values may be shown once. Read-outs that look alike come from different tables or passages of the source.
# Experiments:
# [1] = test system: cells; assay: LD50 for selectivity index (Table 10); format: cell-based, Mycobacterium tuberculosis; details: for SI (Selectivity Index): LD50 : MIC
# From the text: Table 10 lists MIC and LD50 data for selected compounds. […] Table 11 lists MIC data for purified substituted ethylene diamines in comparison to ethambutol (EMB).
# [2] = Maximum tolerated dose, one-time gavage dose in mice; format: in vivo
# Experimental: […] Each dose of each compound consisted of one group of 3 mice. Monitoring of the mice was done twice a day for the duration of the experiment. […] The MTD (mg/kg) is the highest dose that results in no lethality/tissue abnormality.
# • 1. […] The compounds are dissolved in the appropriate concentration of ethanol in distilled water and administered in a volume of 0.2 ml per mouse. • 2. Observation of mice: Mice will be observed 4 and 6 hours post administration, then twice daily for one week. Survival and body weight of mice will be closely monitored throughout the study. • 3. […] Critical organs will be aseptically removed and observed; tissues from the liver, heart, and kidneys are extracted and placed into 10% formalin solution. These fixed tissues are sectioned and examined for abnormalities resulting from drug toxicity.
# [3] = Toxicity, dose escalation study in mice
# Experimental: Toxicity was assessed using a dose escalation study. This study was performed with ten C57BL/6 mice per candidate. Every two days, the mice were administered an increased concentration of the drug, and monitored for detrimental effects. The administration scheme was 50, 100, 200, 400, 600, 800 and 1000 mg/kg.
# [4] = format: in vitro ADME; details: 6 h
# Experimental: (§1) Initially, analytical methods for determination of the compounds had been developed that allowed to carry out all the PK experiments, sec FIG. 29. Here is a brief description of the experiment: (1) plasma spiked with tested compounds and 10 uL of Terfenadine or plasma samples (200 uL) added; (2) ACN (2 mL) added to precipitate protein and spin at 2,500 rpm; (3) evaporate supernatant to dryness; (4) add 200 uL of the diluting solvent: methanol (with 0.1% of trifluoroacetic acid): ammonium acetate (80/20); (5) vortex, spin, and use supernatant; (6) run LC/MS/MS on Sciex API 3000.
# Biostability studies of the compounds in plasma were carried out using concentrations 1 and 15 mg/ml. The compounds were incubated for 1, 2, 3 & 6 hr at 37° C. (Table 18).
# [5] = test system: monkey kidney cells (Vero); assay: In vitro toxicity, Vero cells; format: cell-based; details: Primates
# Experimental: Twenty six compounds (including 37, 59 and 109) were tested in an in vitro model of toxicity using monkey kidney cells (Vero) and human cervical cancer cells (HeLa) using methods well known to those skilled in the art. The data from this toxicity testing and the MIC data were used to calculate a selectivity index (SI), the ratio of IC50:MIC (Table 15). Selectivity Indexes were ranging from 1.76 to 16.67.
# [6] = in vivo; design: species or system mice; details: mouse
# Experimental: as §1
# Pilot PK study of the compounds 37, 59, and 109 in mice was conducted using a cassette dosing: all the three analogs were formulated together in saline at 1.5 mg/mL, and administered to mice simultaneously orally at 25 mg/kg, peritoneally at 6 mg/kg, and intravenously. […] Obtained data are presented on FIGS. 30, 31, and 32 (tested compounds were studied under the NCI′ indexation NSC) and summarized in Table 19.
# [7] = test system: H37Rv strain of Mycobacterium tuberculosis; assay: microbe, parasite or virus in culture; format: cell-based
# [8] = test system: wild type of M.tb; assay: MIC, secondary screening, wild type; format: cell-based, Mycobacterium tuberculosis; details: WT
# [9] = test system: M. tuberculosis H37Rv; assay: In vivo efficacy, mice infected i.v. with M. tuberculosis, CFU in spleen and lungs; design: species or system C57BL/6 mice
# [10] = test system: M. tuberculosis H37Rv; assay: Standard chronic mouse model of tuberculosis, CFU in lung; format: in vivo, C57BL/6 female mice; details: INH+RIF+EMB at 25, 20 and 100 mg/kg, wk 4
# [11] = test system: RIF^R M. tuberculosis strain 2482; format: cell-based; details: strain 2482
# [12] = test system: RIF^R M. tuberculosis strain 3185; format: cell-based; details: strain 3185
# [13] = test system: RIF^R M. tuberculosis isolate 3185; assay: microbe, parasite or virus in culture; format: cell-based
# [14] = test system: H37Rv strain of Mycobacterium tuberculosis; details: background statement; cited from earlier work
# [15] = test system: RIF^R M. tuberculosis isolate 2482; assay: microbe, parasite or virus in culture; format: cell-based; details: strain 2482
# [16] = test system: M. tuberculosis H37Rv (Pasteur); assay: Rapid in vivo model of TB, body weight of infected mice; design: species or system C3H female mice; details: Rif (2 mg/kg)-EMB (10 mg/kg) combination
# [17] = test system: M. tuberculosis H37Rv; assay: MIC by BACTEC 460; format: cell-based, Mycobacterium tuberculosis; details: Mycobacterium tuberculosis, H37RV, reference in head of Table 11; read-out: BACTEC MIC of EMB
# [18] = concentration at which 50% of the cells are killed
# [19] = Mycobacterium tuberculosis, H37RV, Table 10, from uM and MW, read-out: MIC
# [20] = Mycobacterium tuberculosis, H37RV, Table 10, read-out: MIC
# [21] = Mycobacterium tuberculosis, H37RV, Table 15, read-out: MIC
# [22] = Mycobacterium tuberculosis, value in brackets, read-out: MIC (or uM)
# [23] = Mycobacterium tuberculosis, EMB, RL241, Cmpd#59 as 2HCl salt, Cmpd#109 as 2CF3COOH salt, read-out: MIC
smiles,measurement,setting,value
"CC1(C)C2CCC(CNCCNCC(c3ccccc3)c3ccccc3)[C@@H]1C2 (stereo partly drawn) [Compound 37, N-(2,2-Diphenylethyl)-N′-(−)-cis-(myrtanyl)ethane-1,2-diamine]",SI (Selectivity Index),[1],2.048
same,LD50,[1]; [18],32 µM
same,LD50,[1]; from uM and MW,15.872 µg/mL
same,Day of death,[2]; 37 at 100 mg/kg (Table 16),1
same,Mice,"[2]; 37 at 100 mg/kg (Table 16), day 1",2 to 4 h
same,Mice,"[2]; 37 at 100 mg/kg (Table 16), day 2",2
same,Mice,"[2]; 37 at 100 mg/kg (Table 16), day 3",2
same,Mice,"[2]; 37 at 100 mg/kg (Table 16), day 4",2
same,Mice,"[2]; 37 at 100 mg/kg (Table 16), day 6",2
same,Mice,"[2]; 37 at 100 mg/kg (Table 16), day 7",2
same,Mice,"[2]; 37 at 100 mg/kg (Table 17), day 1",3
same,Mice,"[2]; 37 at 100 mg/kg (Table 17), day 2",3
same,Mice,"[2]; 37 at 100 mg/kg (Table 17), day 3",3
same,Mice,"[2]; 37 at 100 mg/kg (Table 17), day 4",3
same,Mice,"[2]; 37 at 100 mg/kg (Table 17), day 5",3
same,Mice,"[2]; 37 at 100 mg/kg (Table 17), day 6",3
same,Mice,"[2]; 37 at 100 mg/kg (Table 17), day 7",3
same,Mice,"[2]; 37 at 300 mg/kg, day 1",3
same,Mice,"[2]; 37 at 300 mg/kg, day 2",3
same,Mice,"[2]; 37 at 300 mg/kg, day 3",3
same,Mice,"[2]; 37 at 300 mg/kg, day 4",3
same,Mice,"[2]; 37 at 300 mg/kg, day 5",3
same,Mice,"[2]; 37 at 300 mg/kg, day 6",3
same,Mice,"[2]; 37 at 300 mg/kg, day 7",3
same,changes in organs,[2]; mice surviving one week,No visible changes in organs
same,fatal dose,"[3]; C57BL/6, mouse, in vivo, 2 days",100 mg/kg
same,toxic dose,[3]; dose escalation,100 mg/kg
same,Biostability in plasma (% ↓),[4]; dog,stable
same,Biostability in plasma (% ↓),[4]; human,20% ↓
same,Biostability in plasma (% ↓),[4]; mouse,stable
same,Biostability in plasma (% ↓),[4]; rat,35% ↓
same,IC50,[5],32 µM
same,AUC,"[6]; ip, 6 mg/kg",1370 ng·h/mL
same,Cmax,"[6]; ip, 6 mg/kg",630 ng/mL
same,Urine excretion (%),"[6]; ip, 6 mg/kg",<0.01%
same,bioavailability,"[6]; ip, 6 mg/kg",72%
same,half-life,"[6]; ip, 6 mg/kg",4.9 h
same,AUC,"[6]; iv, 3 mg/kg",954 ng·h/mL
same,Cmax,"[6]; iv, 3 mg/kg",970 ng/mL
same,Urine excretion (%),"[6]; iv, 3 mg/kg",.71%
same,clearance,"[6]; iv, 3 mg/kg",58.8 mL/min/kg
same,half-life,"[6]; iv, 3 mg/kg",4.8 h
same,AUC,"[6]; po, 25 mg/kg",1600 ng·h/mL
same,Cmax,"[6]; po, 25 mg/kg",263 ng/mL
same,bioavailability,"[6]; po, 25 mg/kg",3.3%
same,MIC,[7]; [19],7.75 µg/mL
same,MIC,[7]; [20],15.6 µM
same,MIC,[7]; [21],7.8 µM
"C[C@@H]1[C@H]2C[C@@H](C[C@H]1NCCNC1CCCCCCC1)C2(C)C [Compound 59, N-(Cyclooctyl)-N′-(1R, 2R, 3R, 5S)-(−)-isopinocampheylethane-1,2-diamine]",SI (Selectivity Index),[1],2.048
same,LD50,[1]; [18],32 µM
same,LD50,[1]; from uM and MW,13.632 µg/mL
same,MIC,[8]; [22],0.13 µM
same,MIC,[8]; [23],0.05 µg/mL
same,tolerated dose,"[3]; C57BL/6, mouse, in vivo",1000 mg/kg
same,Biostability in plasma (% ↓),[4]; dog,stable
same,Biostability in plasma (% ↓),[4]; human,stable
same,Biostability in plasma (% ↓),[4]; mouse,stable
same,Biostability in plasma (% ↓),[4]; rat,stable
same,anti-tuberculosis activity compared with EMB,"[9]; 10 mg/kg, B6 mice, 5×10^5 CFU, chemotherapy from day 20",comparable to that of EMB at 100 mg/kg
same,IC50,[5],36 µM
same,"PK profiling (AUC, Cmax)",[6],relatively poor PK profiling
same,AUC,"[6]; ip, 6 mg/kg",272 ng·h/mL
same,Cmax,"[6]; ip, 6 mg/kg",217 ng/mL
same,Urine excretion (%),"[6]; ip, 6 mg/kg",<0.01%
same,bioavailability,"[6]; ip, 6 mg/kg",35%
same,half-life,"[6]; ip, 6 mg/kg",9.7 h
same,AUC,"[6]; iv, 3 mg/kg",384 ng·h/mL
same,Cmax,"[6]; iv, 3 mg/kg",296 ng/mL
same,Urine excretion (%),"[6]; iv, 3 mg/kg",1.9%
same,clearance,"[6]; iv, 3 mg/kg",134 mL/min/kg
same,half-life,"[6]; iv, 3 mg/kg",6.4 h
same,AUC,"[6]; po, 25 mg/kg",169 ng·h/mL
same,Cmax,"[6]; po, 25 mg/kg",28.7 ng/mL
same,bioavailability,"[6]; po, 25 mg/kg",0.9%
same,MIC,[7]; [19],6.66 µg/mL
same,MIC,[7]; [20],15.6 µM
same,MIC,[7]; [21],15.6 µM
"CC[C@@H](CO)NCCN[C@@H](CC)CO [EMB, Ethambutol, reference compound]",CFU in lung,[10],3.7 log10CFU
same,interaction of 0.5 MIC ethambutol with rifampicin,[11],did not show any additive or synergistic activity
same,MIC,[8]; [22],11.1 µM
same,MIC,[8]; [23],3.12 µg/mL
same,MIC,"[8]; EMB, RL241, Cmpd#59 as 2HCl salt, Cmpd#109 as 2CF3COOH salt",1.6 to 1.8 µg/mL
same,interaction of 0.5 MIC ethambutol with rifampicin,[12],synergy was not observed
same,MIC,"[13]; Mycobacterium tuberculosis, read-out: MIC (BACTEC)",2.5 µg/mL
same,concentration to which the strain was susceptible,[13]; strain 3185,2.5 mg/L
same,Minimum Inhibition Concentration (MIC),[14],about 5 μg/ml
same,concentration to which the strain was susceptible,[15],2.5 mg/L
same,decrease of load of bacteria in organs,[9]; during 4-6 weeks of chemotherapy,1.0-2.0 logs
same,body weight of infected mice,[16],No improvement
same,MIC,[7],8.37 µM and 7.25 µM
same,MIC,"[7]; Mycobacterium tuberculosis, H37RV, read-out: MIC",7.19 µM
same,MIC,[17],2.5 µg/mL
